Results reported in patent US12077503B2, “Substituted cyclic amides and their use as herbicides” (FMC CORPORATION, priority 2015, dated 2024).

Key:
Test in all cases: Test A postemergence
Type in all cases: in vivo
[1] = test system: ryegrass, Italian (Italian ryegrass, Lolium multiflorum); settings: Lolium multiflorum, post-emergence, 240 h, 125 g ai/ha, postemergence, visual injury rating after approximately 10 d; read-out: Ryegrass, Italian plant response rating (0 to 100 scale, 0 no effect, 100 complete control)
Procedure, shortened: (§1)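 Ratings of 0 (no effect) to 100 (complete control) come from visual comparison with untreated controls roughly 10 d after treatment. Test chemicals, formulated in a non-phytotoxic solvent mixture with surfactant, were applied either as a preemergence directed soil spray on seeded soil or postemergence to one- to two-leaf plants 2 to 10 cm tall.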

[2] = test system: wheat (Triticum aestivum); settings: Triticum aestivum, post-emergence, 240 h, 125 g ai/ha, postemergence, visual injury rating after approximately 10 d; read-out: Wheat plant response rating (0 to 100 scale, 0 no effect, 100 complete control)
Procedure, shortened: as §1

[3] = test system: Galium (catchweed bedstraw, Galium aparine); settings: Galium, post-emergence, 240 h, 125 g ai/ha, postemergence, visual injury rating after approximately 10 d; read-out: Galium plant response rating (0 to 100 scale, 0 no effect, 100 complete control)
Procedure, shortened: as §1

[4] = test system: giant foxtail (Setaria faberii); settings: Setaria faberi, post-emergence, 240 h, 125 g ai/ha, postemergence, visual injury rating after approximately 10 d; read-out: Foxtail, Giant plant response rating (0 to 100 scale, 0 no effect, 100 complete control)
Procedure, shortened: as §1

corn (Zea mays) = settings: Zea mays, post-emergence, 240 h, 125 g ai/ha, postemergence, visual injury rating after approximately 10 d; read-out: Corn plant response rating (0 to 100 scale, 0 no effect, 100 complete control)
Procedure, shortened: as §1

[5] = test system: ragweed (common ragweed, Ambrosia elatior); settings: Ambrosia artemisiifolia, post-emergence, 240 h, 125 g ai/ha, postemergence, visual injury rating after approximately 10 d; read-out: Ragweed plant response rating (0 to 100 scale, 0 no effect, 100 complete control)
Procedure, shortened: as §1

Row | Compound | pest or weed control at 125 g/ha [1] | plant injury at 125 g/ha [2] | pest or weed control at 125 g/ha [3] | pest or weed control at 125 g/ha [4] | plant injury at 125 g/ha (corn (Zea mays)) | pest or weed control at 125 g/ha [5]
1 | O=C1NC[C@H](c2ccc(F)c(OC(F)(F)C(F)(F)Br)c2)[C@H]1C(=O)Nc1cccc(F)c1F (racemic) [Compound 914] | 0% | 0% | 60% | 70% | 0% | 20%
2 | CN1C[C@H](c2cccc(C3CC3)c2)[C@@H](C(=O)Nc2ccccc2S(C)(=O)=O)C1=O [Compound 817] | 30% | 50% | 40% | 90% | 50% | 0%
3 | CN1C[C@H](c2cccc(C3CC3)c2)[C@@H](C(=O)Nc2ccc(F)cc2F)C1=O [Compound 818] | 40% | 0% | 50% | 90% | 40% | 0%
4 | CC(C)c1cccc([C@H]2CN(C)C(=O)[C@@H]2C(=O)Nc2ccccc2F)c1 [Compound 819] | 70% | 30% | 50% | 90% | 40% | 0%
5 | CN1C[C@H](c2cccc(F)c2)[C@@H](C(=O)Nc2ccccc2C(F)(F)F)C1=O [Compound 823] | 0% | 0% | 30% | 90% | 0% | 20%
6 | N#Cc1cccc(NC(=O)[C@H]2C(=O)NC[C@@H]2c2cccc(C(F)(F)F)c2)c1F [Compound 829] | 20% | 30% | 30% | 90% | 30% | 0%
7 | CS(=O)(=O)c1ccccc1NC(=O)[C@H]1C(=O)NC[C@@H]1c1cc(F)c(C(F)(F)F)c(F)c1 [Compound 839] | 50% | 50% | 80% | 60% | 30% | 60%
8 | COc1ccccc1NC(=O)[C@H]1C(=O)N(C)C[C@@H]1c1ccc(C(F)(F)F)cc1 [Compound 843] | 0% | 0% | 30% | 70% | 0% | 0%
9 | Cc1cc(F)cc([C@H]2CNC(=O)[C@@H]2C(=O)Nc2ccc(F)c(F)c2F)c1 [Compound 848] | 0% | 0% | 30% | 70% | 0% | 0%
10 | Cc1cc(F)cc([C@H]2CN(C)C(=O)[C@@H]2C(=O)Nc2cccc(F)c2F)c1 [Compound 849] | 0% | 30% | 60% | 90% | 70% | 0%
11 | Cc1cc(F)cc([C@H]2CN(C)C(=O)[C@@H]2C(=O)Nc2ccccc2F)c1 [Compound 850] | 0% | 20% | 30% | 80% | 30% | 0%
12 | COc1ccc([C@H]2CN(C)C(=O)[C@@H]2C(=O)Nc2ccccc2F)cc1OC [Compound 852] | 0% | 0% | 0% | 80% | 0% | 0%
13 | COc1ccc([C@H]2CN(C)C(=O)[C@@H]2C(=O)Nc2cccc(F)c2F)cc1OC [Compound 853] | 0% | 0% | 0% | 90% | 0% | 0%
14 | COc1ccc([C@H]2CN(C)C(=O)[C@@H]2C(=O)Nc2ccccc2SC)cc1OC [Compound 854] | 0% | 0% | 0% | 50% | 0% | 0%
15 | COc1cc([C@H]2CN(C)C(=O)[C@@H]2C(=O)Nc2cccc(F)c2F)cc(C(F)(F)F)c1 [Compound 856] | 40% | 50% | 40% | 90% | 80% | 0%
16 | COc1cc(C(F)(F)F)ccc1[C@H]1CN(C)C(=O)[C@@H]1C(=O)Nc1cccc(F)c1F [Compound 859] | 20% | 20% | 50% | 80% | 50% | 0%
17 | COc1cc(C(F)(F)F)ccc1[C@H]1CN(C)C(=O)[C@@H]1C(=O)Nc1ccccc1SC [Compound 860] | 0% | 20% | 20% | 60% | 0% | 0%
18 | CSc1ccccc1NC(=O)[C@H]1C(=O)NC[C@@H]1c1cccc2c1OC(F)(F)O2 [Compound 865] | 0% | 0% | 0% | 0% | 0% | 0%
19 | CSc1ccccc1NC(=O)[C@H]1C(=O)N(C)C[C@@H]1c1cc(F)c(F)c(F)c1 [Compound 866] | 20% | 0% | 20% | 70% | 30% | 0%
20 | CN1C[C@H](c2cc(F)cc(F)c2)[C@@H](C(=O)Nc2ccccc2[S@+](C)[O-])C1=O [Compound 871] | 20% | 20% | 50% | 40% | 20% | 0%
21 | Cc1c(F)cccc1NC(=O)[C@H]1C(=O)N(C)C[C@@H]1c1cccc(COC(F)F)c1 [Compound 874] | 20% | 20% | 20% | 90% | 50% | 20%
22 | CN1C[C@H](c2cccc(COC(F)F)c2)[C@@H](C(=O)Nc2ccccc2F)C1=O [Compound 875] | 20% | 0% | 40% | 90% | 20% | 20%
23 | CSc1ccccc1NC(=O)[C@H]1C(=O)N(C)C[C@@H]1c1cccc(COC(F)F)c1 [Compound 876] | 0% | 0% | 0% | 40% | 0% | 0%
